“Also recorded” adds a separate entry of the source. Positions of bridges follow the written chain, without caps; N, C: chain ends. Non-standard residues stand in square brackets, D forms with d. Residues, ends and D or L forms follow the SMILES beside them. Pro(cis-4-Trz(4-CH2CH2Ph)) = O=C(O)[C@@H]1C[C@H](n2cc(CCc3ccccc3)nn2)CN1
Experiments:
S375H mutant of gp120 = S375H mutant of gp120 (Human immunodeficiency virus type 1 group M subtype B, UniProt P35961, S370H); experiment: SPR competition with gp120 mutant S375H; assay type: binding, HIV-1
S375W mutant of gp120 = S375W mutant of gp120 (Human immunodeficiency virus type 1 group M subtype B, UniProt P35961, S370W); experiment: SPR competition with gp120 mutant S375W; assay type: binding, HIV-1
HIV-1 gp120 = molecular target: T1, HIV-1 gp120 (Human immunodeficiency virus type 1 group M subtype B, UniProt P35961); assay type: binding; conditions: for Dual receptor site (CD4 and 17b) inhibition of gp120, in words: SPR competition
T1 construct: Expression and Purification of Wild-Type gp120YU-2; made in house; host or cells: HEK 293F
Experimental: SPR competition binding assays were used to assess the structural elements required for cyclic hexapeptide binding to gp120. […] In an attempt to restore the lost contact, the length of the two linkers was changed (Linker 1 and Linker 2 in FIG. 12).
SPR experiments were performed on a Biacore 3000 optical biosensor (GE Healthcare). All experiments were carried out at 25° C. using standard PBS buffer pH=7.4 with 0.005% surfactant Tween. A CM5 sensor chip was derivatized by standard 1-ethyl-3-(3-dimethylaminopropyl) carbodiimide (EDC)/N-hydroxysuccinimide (NHS) chemistry, and coupling was done through ligand amine groups. Antibody 2B6R (α-human IL5R) was immobilized for negative control surfaces. For competition experiments, soluble four domain CD4 and 17b antibody were immobilized on the surface through standard EDC/NHS chemistry. For kinetic analyses, typically 2000-3000 RUs of protein reagents were immobilized on SPR chips, and analytes were passed over the surface at 50-100 μL/min. Surface regeneration was achieved by a 5 μL injection of 10 mM HCl solution at 100 μL/min. […] Regeneration of the surface was achieved by a single 10 second pulse of 1.3 M NaCl/35 mM NaOH and single 5-second pulse of 10 mM glycine, pH 1.5, for sCD4 and mAb 17b, respectively. All analyses were performed in triplicate.
The inhibition curve was converted into a calibration curve by the use of a fitting function. The fitting was done using the 4-parameter Equation (1) from BIAevaluation software,
The cyclic peptides of the invention were tested against HIV-1 gp120 by SPR competition assays as described elsewhere herein. A mixture of the cyclic peptide/gp120 solutions was passed over SPR chip immobilized with CD4 and 17b separately. The competition assay evaluated the ability of each peptide to inhibit the binding between gp120 and both soluble CD4 and 17b antibody, a surrogate for co-receptor.

HIV-1 Bal.01 pseudovirus = experiment: Inhibition of HIV-1 infection against Bal.01 (HOS.T4.R5 cells, luciferase); assay type: cell-based
HIV-1 JR-FL pseudovirus = experiment: Inhibition of HIV-1 infection against JR-FL (HOS.T4.R5 cells, luciferase); assay type: cell-based
[1] = molecular target: Chymotrypsin (bovine pancreas) (Bos taurus, UniProt P00766); experiment: In vitro proteolytic stability, chymotrypsin
[2] = molecular target: T2, Trypsin (from bovine pancreas) (Bos taurus, UniProt P00760); experiment: In vitro proteolytic stability, trypsin; conditions: 5 h incubation, 37° C.
T2 sequence (P00760 24-246): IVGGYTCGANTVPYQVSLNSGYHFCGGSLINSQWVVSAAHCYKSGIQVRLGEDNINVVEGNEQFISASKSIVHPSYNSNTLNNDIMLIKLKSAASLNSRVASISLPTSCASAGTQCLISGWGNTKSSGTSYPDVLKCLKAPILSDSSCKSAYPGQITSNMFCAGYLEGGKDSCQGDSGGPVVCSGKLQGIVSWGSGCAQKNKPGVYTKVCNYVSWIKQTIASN

[3] = test system: viruses pseudotyped with VSV-G; conditions: cited from earlier work
monomeric gp120 = monomeric gp120 (Human immunodeficiency virus type 1 group M subtype B, UniProt P35961); conditions: read-out: KD, binding to monomeric gp120; cited from earlier work
[4] = test system: HIV-1 subtype A, B and C isolates; conditions: read-out: IC50 range, neutralization of viral infection; cited from earlier work
tissue explants model = conditions: concentrations up to 100 μM; cited from earlier work

Compound | Activity against S375H mutant of gp120 (S375H mutant of gp120) | Activity against S375W mutant of gp120 (S375W mutant of gp120) | fold more active than the linear analogue (HIV-1 gp120) [fold] | Dual receptor site (CD4 and 17b) inhibition of gp120, in words (HIV-1 gp120) | Infection inhibition against Bal.01, in words (HIV-1 Bal.01 pseudovirus) | Infection inhibition against JR-FL, in words (HIV-1 JR-FL pseudovirus) | State after chymotrypsin treatment, in words ([1]; 30 min incubation, 37° C.) | Resistance to chymotrypsin, in words ([1]; 5 h incubation, 37° C.) | Intactness after chymotrypsin digestion, in words ([1]; 40 h incubation, HPLC and ESI-MS) | Time the peptide remained stable ([1]; in the presence of trypsin and chymotrypsin, 37° C., pH 8.2) [h] | Resistance to trypsin, in words [2] | fold enhanced activity vs AAR029b (HIV-1 gp120) [fold] | Neutralization of VSV-G pseudotyped viruses, in words [3] | Kd (monomeric gp120) [nM] | IC50 [4] [nM] | Toxicity in tissue explants model (tissue explants model)
CC[C@H](C)[C@H](N)C(=O)N[C@H]1CCC(=O)NCCCC[C@@H](C(N)=O)NC(=O)[C@H](Cc2c[nH]c3ccccc23)NC(=O)[C@@H]2C[C@H](n3cc(CCc4ccccc4)nn3)CN2C(=O)[C@H]([C@@H](C)CC)NC(=O)[C@H](CC(N)=O)NC1=O [AAR024, (3S,6S,15S,18S,21S,25S,26aS)-3-((1H-indol-3-yl)methyl)-18-(2-amino-2-oxoethyl)-15-((2S,3S)-2-amino-3-methylpentanamido)-21-((S)-sec-butyl)-1,4,12,16,19,22-hexaoxo-25-(4-phenethyl-1H-1,2,3-triazol-1-yl)hexacosahydropyrrolo[2,1-f][1,4,7,10,13,19]hexaazacyclotetracosine-6-carboxamide] (H-IENI[Pro(cis-4-Trz(4-CH2CH2Ph))]WK-NH2; lactam 2-7) | inactive | inactive | > 40 | retained the dual receptor site inhibitory signature of linear PTs; also recorded: dual inhibitors |  |  |  |  |  |  |  |  |  |  |  | 
CC[C@H](C)[C@@H]1NC(=O)[C@H](CC(N)=O)NC(=O)[C@@H](N)CC(=O)NCCCC[C@@H](C(N)=O)NC(=O)[C@H](Cc2c[nH]c3ccccc23)NC(=O)[C@@H]2C[C@H](n3cc(CCc4ccccc4)nn3)CN2C1=O [AAR029, (3S,6S,14S,17S,20S,24S,25aS)-3-((1H-indol-3-yl)methyl)-14-amino-17-(2-amino-2-oxoethyl)-20-((S)-sec-butyl)-1,4,12,15,18,21-hexaoxo-24-(4-phenethyl-1H-1,2,3-triazol-1-yl)tetracosahydro-1H-pyrrolo[2,1-f][1,4,7,10,13,18]hexaazacyclotricosine-6-carboxamide] (H-DNI[Pro(cis-4-Trz(4-CH2CH2Ph))]WK-NH2; lactam 1-6) |  |  | > 200 | dual inhibitors | inhibiting activity | inhibiting activity | almost unchanged | completely resistant | remained intact | > 40 | completely resistant | ~2 |  |  |  | 
(S)-4-((S)-2-((S)-2-((2S,4S)-1-(L-arginyl-L-isoleucyl-L-asparaginyl-L-asparaginyl-L-alloisoleucyl)-4-(4-ferrocenyl-1H-1,2,3-triazol-1-yl)pyrrolidine-2-carboxamido)-3-(1H-indol-3-yl)propanamido)-3-hydroxypropanamido)-5-(((S)-1-(((S)-1-(((S)-1-amino-4-(methylthio)-1-oxobutan-2-yl)amino)-4-(methylthio)-1-oxobutan-2-yl)amino)-1-oxopropan-2-yl)amino)-5-oxopentanoic acid [HNG156] |  |  |  |  |  |  |  |  |  |  |  |  | not | 7 | 80 to 62500 | no detectable toxicity

From US10251931B2, “Cyclic peptides and methods using same” (priority 2014, dated 2019)
